Measurements: the supplement of paper PMC10307832

Tests used:
Test in all cases: relative viability (nuclei count vs DMSO), 5 days (fraction); higher = more cells survive
[1] = compound: O=c1[nH]cc(F)c(=O)[nH]1 [5-Fluorouracil] + Cc1cc(Nc2cc(N3CCN(C)CC3)nc(Sc3ccc(NC(=O)C4CC4)cc3)n2)n[nH]1 [Tozasertib] (partner 0.1 µM)
How it was run: (§1)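 Lung cancer cell lines were seeded in 1536-well plates and dosed by pin tool the next day, with either a single drug or a fixed anchor-drug dose combined with five library-drug doses (not always all listed) spaced in √10 steps. Five days later, one step fixed the cells and stained their nuclei (final 0.05% Triton X-100, 1% formaldehyde, 1 ug/ml Hoechst), and nuclei were counted on 4× images. Relative viability is the nuclei count in treated wells divided by the count in vehicle wells, and each value is the median of duplicate plates.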

[2] = compound: CN[C@@H]1C[C@H]2O[C@@](C)([C@@H]1OC)n1c3ccccc3c3c4c(c5c6ccccc6n2c5c31)C(=O)NC4 [Staurosporine] + CC(=O)c1c(C)c2cnc(Nc3ccc(N4CCNCC4)cn3)nc2n(C2CCCC2)c1=O [Palbociclib] (partner 0.5 µM)
How it was run: as §1

[3] = compound: CN[C@@H]1C[C@H]2O[C@@](C)([C@@H]1OC)n1c3ccccc3c3c4c(c5c6ccccc6n2c5c31)C(=O)NC4 [Staurosporine] + CC(=O)Nc1cccc(-n2c(=O)n(C3CC3)c(=O)c3c(Nc4ccc(I)cc4F)n(C)c(=O)c(C)c32)c1 [Trametinib] (partner 0.02 µM)
How it was run: as §1

[4] = compound: CN[C@@H]1C[C@H]2O[C@@](C)([C@@H]1OC)n1c3ccccc3c3c4c(c5c6ccccc6n2c5c31)C(=O)NC4 [Staurosporine] + C[C@]1(O)C[C@@H](c2nc(-c3ccc4ccc(-c5ccccc5)nc4c3)c3c(N)nccn32)C1 [Linsitinib] (partner 1 µM)
How it was run: as §1

UMC-11
relative viability ([1]; first compound 0.02 µM): 0.183
relative viability ([1]; first compound 0.2 µM): 0.188
relative viability ([1]; first compound 0.6325 µM): 0.203
relative viability ([1]; first compound 2 µM): 0.188
relative viability ([2]; first compound 0.005 µM): 0.335
relative viability ([2]; first compound 0.05 µM): 0.201
relative viability ([2]; first compound 0.1581 µM): 0.152
relative viability ([2]; first compound 0.5 µM): 0.158
relative viability ([3]; first compound 0.005 µM): 0.444
relative viability ([3]; first compound 0.01581 µM): 0.0989
relative viability ([3]; first compound 0.05 µM): 0.212
relative viability ([3]; first compound 0.1581 µM): 0.121
relative viability ([3]; first compound 0.5 µM): 0.0798
relative viability ([4]; first compound 0.005 µM): 0.901
relative viability ([4]; first compound 0.01581 µM): 0.569
relative viability ([4]; first compound 0.05 µM): 0.583
relative viability ([4]; first compound 0.1581 µM): 0.126
relative viability ([4]; first compound 0.5 µM): 0.0837
